Patent publication US20240254129A1, “HETEROCYCLIC COMPOUNDS AND USES THEREOF” (Kumquat Biosciences Inc., priority 2021, published 2024)

Columns and labels:
[1] = molecular target: GST-tagged K-Ras mutant / His-tagged hSOS1 (Homo sapiens, UniProt P01116); assay: HTRF assay, K-Ras mutant / SOS1 interaction; format: binding; settings: compound nos. 401-703; read-out: IC50 against mutant Kras
Outline: (§1)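 Inhibition of wildtype or mutant K-Ras binding to hSOS1 is measured by FRET between antibody-bound Eu donor and XL665 acceptor. Protein levels are matched to the IC50 range under study. The 665/620 nm signal after ≥10 min yields IC50.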

[2] = molecular target: T1, wildtype Kras / hSOS1 (Homo sapiens, UniProt P01116); assay: HTRF assay, wildtype Kras / SOS1 interaction; format: binding; settings: compound nos. 401-703; read-out: IC50 against wildtype Kras
T1 construct: made in house; host or cells: E. coli BL21 (DE3)
Outline: as §1

Chain of GST-tagged K-Ras mutant / His-tagged hSOS1 (P01116 whole entry G12D, form open): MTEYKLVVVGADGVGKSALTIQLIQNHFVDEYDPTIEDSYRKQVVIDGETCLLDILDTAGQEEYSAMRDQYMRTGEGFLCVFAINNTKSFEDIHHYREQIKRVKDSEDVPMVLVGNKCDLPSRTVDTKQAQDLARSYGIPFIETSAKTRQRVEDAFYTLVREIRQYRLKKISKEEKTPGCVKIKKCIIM
T1 sequence (P01116 1-188 isoform P01116-2): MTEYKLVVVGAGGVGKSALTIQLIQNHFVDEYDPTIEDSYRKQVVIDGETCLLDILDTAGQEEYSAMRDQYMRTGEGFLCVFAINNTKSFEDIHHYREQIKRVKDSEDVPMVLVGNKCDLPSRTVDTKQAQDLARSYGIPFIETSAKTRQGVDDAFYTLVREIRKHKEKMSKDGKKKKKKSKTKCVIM

SMILES | IC50 [1] [nM] | IC50 [2] [nM]
Fc1c(Br)c(Cl)cc2c(N3CCNCC(F)(F)C3)nc(OCC34CCCN3CCC4)nc12 [Compound 599, 7-bromo-6-chloro-4-(6,6-difluoro-1,4-diazepan-1-yl)-8-fluoro-2-((tetrahydro-1H-pyrrolizin-7a(5H)-yl)meth-oxy)quinazoline] | > 500 | > 500
Nc1nc2c(-c3c(Cl)cc4c(N5CCC[C@H](N)CC5)nc(OC[C@@]56CCCN5C[C@H](F)C6)nc4c3F)ccc(F)c2s1 [Compound 600, 4-(4-((S)-4-aminoazepan-1-yl)-6-chloro-8-fluoro-2-(((2R,7aS)-2-fluorotetra-hydro-1H-pyrrolizin-7a(5H)-yl)methoxy)quinazolin-7-yl)-7-fluorobenzo[d]thiazol-2-amine] | < 500 | > 500
Nc1nc2c(-c3c(Cl)cc4c(N5CC6CCC(C5)N6)nc(OC[C@@]56CCCN5C[C@H](F)C6)nc4c3F)cc(Cl)cc2s1 [Compound 601, 4-(4-(3,8-diazabicyclo-[3.2.1]octan-3-yl)-6-chloro-8-fluoro-2-(((2R,7aS)-2-fluorotetrahydro-1H-pyrrol-izin-7a(5H)-yl)methoxy)-quinazolin-7-yl)-6-chloro-benzo[d]thiazol-2-amine] | < 500 | > 500
CN1CCC[C@H]1COc1nc(N2CCNCC(F)(F)C2)c2cc(Cl)c(-c3cccc4cnc(N)nc34)c(F)c2n1 [Compound 602, 6-chloro-4-(6,6-difluoro-1,4-diazepan-1-yl)-8-fluoro-2-(((S)-1-methylpyrrolidin-2-yl)methoxy)-[7,8′-biquin-azolin]-2′-amine] | > 500 | > 500
Fc1c(-c2ccccc2-c2ccccc2)c(Cl)cc2c(N3CCCCCC3)nc(OCC34CCCN3CCC4)nc12 [Compound 603, 7-([1,1′-biphenyl]-2-yl)-4-(azepan-1-yl)-6-chloro-8-fluoro-2-((tetrahydro-1H-pyrrolizin-7a(5H)-yl)meth-oxy)quinazoline] | > 500 | > 500
Nc1nc2c(-c3c(Cl)cc4c(N5CCNC(=O)CC5)nc(OC[C@@]56CCCN5C[C@H](F)C6)nc4c3F)ccc(F)c2s1 [Compound 604, 1-(7-(2-amino-7-fluoroben-zo[d]thiazol-4-yl)-6-chloro-8-fluoro-2-(((2R,7aS)-2-fluorotetrahydro-1H-pyrrol-izin-7a(5H)-yl)methoxy)-quinazolin-4-yl)-1,4-diazepan-5-one] | < 500 | > 500
N#Cc1c(N)sc2c(F)ccc(-c3c(Cl)cc4c(N5CC6CCC(C5)N6C5CCOC5)nc(OC[C@@]56CCCN5C[C@H](F)C6)nc4c3F)c12 (stereo partly drawn) [Compound 605, 2-amino-4-(6-chloro-8-fluoro-2-(((2R,7aS)-2-fluoro-tetrahydro-1H-pyrrolizin-7a(5H)-yl)methoxy)-4-((1R,5S)-8-(tetrahydro-furan-3-yl)-3,8-diazabicyclo-[3.2.1]octan-3-yl)quinazolin-7-yl)-7-fluorobenzo[b]thio-phene-3-carbonitrile] | < 500 | > 500
Nc1ccc2cccc(-c3c(Cl)cc4c(N5CC6CCC(C5)N6)nc(OC[C@@]56CCCN5C[C@H](F)C6)nc4c3F)c2n1 [Compound 606, 8-(4-(3,8-diazabicyclo-[3.2.1]octan-3-yl)-6-chloro-8-fluoro-2-(((2R,7aS)-2-fluorotetrahydro-1H-pyrrol-izin-7a(5H)-yl)methoxy)-quinazolin-7-yl)quinolin-2-amine] | > 500 | > 500
Nc1nc2c(-c3c(Cl)cc4c(N5CC6CCCC(C5)N6)nc(OC[C@@]56CCCN5C[C@H](F)C6)nc4c3F)ccc(F)c2s1 [Compound 607, 4-(4-(3,9-diazabicyclo-[3.3.1]nonan-3-yl)-6-chloro-8-fluoro-2-(((2R,7aS)-2-fluorotetrahydro-1H-pyrrol-izin-7a(5H)-yl)methoxy)-quinazolin-7-yl)-7-fluoro-benzo[d]thiazol-2-amine] | < 500 | > 500

Next, values leading:

IC50 [1] [nM] | IC50 [2] [nM] | SMILES
> 500 | > 500 | Oc1cc(-c2ccc3c(N4CC5CCC(C4)N5)nc(OC[C@]45CCCN4C[C@@H](F)C5)nc3c2OCC(F)(F)F)c2ccccc2c1 [Compound 608, 4-(4-(3,8-diazabicyclo-[3.2.1]octan-3-yl)-2-(((2S,7aR)-2-fluorotetra-hydro-1H-pyrrolizin-7a(5H)-yl)methoxy)-8-(2,2,2-trifluoroethoxy)-quinazolin-7-yl)naph-thalen-2-ol]
< 500 | > 500 | C#Cc1cccc2cc(O)cc(-c3ccc4c(N5CCNCC(F)(F)C5)nc(OC[C@@]56CCCN5C[C@H](F)C6)nc4c3F)c12 [Compound 609, 4-(4-(6,6-difluoro-1,4-diazepan-1-yl)-8-fluoro-2-(((2R,7aS)-2-fluorotetra-hydro-1H-pyrrolizin-7a(5H)-yl)methoxy)quin-azolin-7-yl)-5-ethynylnaph-thalen-2-ol]
> 500 | > 500 | Cc1ccc2cn[nH]c2c1-c1c(Cl)cc2c(N3CC4CCC(C3)N4)nc(OC[C@@]34CCCN3C[C@H](F)C4)nc2c1F [Compound 611, 4-(3,8-diazabicyclo[3.2.1]-octan-3-yl)-6-chloro-8-fluoro-2-(((2R,7aS)-2-fluorotetrahydro-1H-pyrrol-izin-7a(5H)-yl)methoxy)-7-(6-methyl-1H-indazol-7-yl)-quinazoline]
> 500 | > 500 | Nc1nc2c(-c3ccc4c(N5CC6CCC(C5)N6)nc(OC[C@@]56CCCN5C[C@H](F)C6)nc4c3F)ccc(F)c2s1 [Compound 612, 4-(4-(3,8-diazabicyclo-[3.2.1]octan-3-yl)-8-fluoro-2-(((2R,7aS)-2-fluorotetra-hydro-1H-pyrrolizin-7a(5H)-yl)methoxy)quinazolin-7-yl)-7-fluorobenzo[d]thiazol-2-amine]
> 500 | > 500 | Oc1cc(-c2c(Cl)cc3c(N4CC5CCC(C4)N5)nc(OCC45CCCN4CCC5)nc3c2F)cc(C(F)(F)F)c1 [Compound 614, 3-(4-(3,8-diazabicyclo-[3.2.1]octan-3-yl)-6-chloro-8-fluoro-2-((tetrahydro-1H-pyrrolizin-7a(5H)-yl)meth-oxy)quinazolin-7-yl)-5-(trifluoromethyl)phenol]
< 500 | > 500 | Nc1nc2c(-c3c(Cl)cc4c(N5CC6CCC(C5)N6)nc(OCC56CCCN5CCC6)nc4c3F)cc(Cl)cc2s1 [Compound 615, 4-(4-(3,8-diazabicyclo-[3.2.1]octan-3-yl)-6-chloro-8-fluoro-2-((tetrahydro-1H-pyrrolizin-7a(5H)-yl)meth-oxy)quinazolin-7-yl)-6-chlorobenzo[d]thiazol-2-amine]
< 500 | > 500 | CC(C)CN1[C@@H]2CC[C@H]1CN(c1nc(OCC34CCCN3CCC4)nc3c(F)c(-c4ccc(F)c5sc(N)nc45)c(Cl)cc13)C2 [Compound 617, 4-(6-chloro-8-fluoro-4-((1R,5S)-8-isobutyl-3,8-diazabicyclo[3.2.1]octan-3-yl)-2-((tetrahydro-1H-pyrrolizin-7a(5H)-yl)meth-oxy)quinazolin-7-yl)-7-fluorobenzo[d]thiazol-2-amine]
> 500 | > 500 | Nc1cc2cccc(-c3c(Cl)cc4c(N5CC6CCC(C5)N6)nc(OCC56CCCN5CCC6)nc4c3F)c2cn1 [Compound 618, 8-(4-(3,8-diazabicyclo-[3.2.1]octan-3-yl)-6-chloro-8-fluoro-2-((tetrahydro-1H-pyrrolizin-7a(5H)-yl)meth-oxy)quinazolin-7-yl)iso-quinolin-3-amine]
> 500 | > 500 | Fc1c(-c2cccc3c2CCCC3)c(Cl)cc2c(N3CC4CCC(C3)N4)nc(OC[C@@]34CCCN3C[C@H](F)C4)nc12 [Compound 619, 4-(3,8-diazabicyclo[3.2.1]-octan-3-yl)-6-chloro-8-fluoro-2-(((2R,7aS)-2-fluorotetrahydro-1H-pyrrol-izin-7a(5H)-yl)methoxy)-7-(5,6,7,8-tetrahydronaph-thalen-1-yl)quinazoline]
< 500 | > 500 | Nc1nc2c(-c3c(Cl)cc4c(N5CCCNCC5)nc(OC[C@@]56CCCN5C[C@H](F)C6)nc4c3F)ccc(F)c2s1 [Compound 621, 4-(6-chloro-4-(1,4-diazepan-1-yl)-8-fluoro-2-(((2R,7aS)-2-fluorotetrahydro-1H-pyrrolizin-7a(5H)-yl)meth-oxy)quinazolin-7-yl)-7-fluorobenzo[d]thiazol-2-amine]
< 500 | > 500 | Nc1nc2c(-c3c(Cl)cc4c(N5CCC6CNCC6C5)nc(OC[C@@]56CCCN5C[C@H](F)C6)nc4c3F)ccc(F)c2s1 (stereo partly drawn) [Compound 623, 4-(6-chloro-8-fluoro-2-(((2R,7aS)-2-fluorotetra-hydro-1H-pyrrolizin-7a(5H)-yl)methoxy)-4-(octahydro-5H-pyrrolo[3,4-c]pyridin-5-yl)quinazolin-7-yl)-7-fluoro-benzo[d]thiazol-2-amine]
> 500 | > 500 | Nc1cc(-c2c(Cl)cc3c(N4CC5CCC(C4)N5)nc(OCC45CCCN4CCC5)nc3c2F)ccc1F [Compound 627, 5-(4-(3,8-diazabicyclo-[3.2.1]octan-3-yl)-6-chloro-8-fluoro-2-((tetrahydro-1H-pyrrolizin-7a(5H)-yl)meth-oxy)quinazolin-7-yl)-2-fluoroaniline]
> 500 | > 500 | Nc1nc2c(-c3c(Cl)cc4c(N5CCCCC56CNC6)nc(OC[C@@]56CCCN5C[C@H](F)C6)nc4c3F)ccc(F)c2s1 [Compound 629, 4-(6-chloro-8-fluoro-2-(((2R,7aS)-2-fluorotetra-hydro-1H-pyrrolizin-7a(5H)-yl)methoxy)-4-(2,5-diaza-spiro[3.5]nonan-5-yl)quin-azolin-7-yl)-7-fluorobenzo-[d]thiazol-2-amine]
